Results on one molecule are retold here after US12030897B2, “Pyrrolo[2,1-f][1,2,4]triazine derivatives serving as selective HER2 inhibitors and application thereof” (MEDSHINE DISCOVERY INC., priority 2018, dated 2024).

One data set addresses CYP2D6 (Homo sapiens (Human), UniProt P10635). Description: Inhibition of human liver microsomal cytochrome P450 isoenzyme CYP2D6. The note with it: human liver microsomes. The data set is classed as in vitro ADME. The method, then: (§1) The object of this study was to evaluate the effect of Example 4 on the activities of five isoenzymes (CYP1A2, CYP2C9, CYP2C19, CYP2D6 and CYP3A4) of human liver microsomal cytochrome P450 (CYP) using an in vitro test system. The specific probe substrates of CYP450 isozymes were incubated with human liver microsomes and different concentrations of Example 4, and reduced nicotinamide adenine dinucleotide phosphate (NADPH) was added to initiate the reaction. After the reaction was completed, the samples were treated, and liquid chromatography tandem mass spectrometry (LC/MS/MS) was used to detect the metabolites produced by specific substrates.

In a further data set the target is CYP1A2 (Homo sapiens (Human), UniProt P05177). The data set is classed as in vitro ADME. The note with it: microsomes. The method, then:
as §1

Data set [1] relates to human breast cancer BT-474 cell subcutaneous xenograft tumor. Nature of the data set: In vivo efficacy, BT-474 subcutaneous xenograft tumor model. Also on record: species or system BALB/c nude mice. The note with it: BT-474 xenograft, 100 mg/kg. As for the experimental part: Experiment object: to study the in vivo efficacy of the tested compound in human breast cancer BT-474 cell BALB/c nude mouse subcutaneous xenograft tumor model.
Experimental animals: female BALB/c nude mice, 6 to 8 weeks old, weight: 18 to 22 grams; Supplier Beijing Weitonglihua Laboratory Animal Technology Co., Ltd.
Human breast cancer BT474 cells were cultured in a monolayer in vitro. The culture conditions were: ATCC Hybri-Care Medium with 1.5 g/L sodium bicarbonate, 10% fetal bovine serum, 100 U/mL penicillin and 100 μg/mL streptomycin, and 37° C., 5% CO2 incubator. Conventional digestion treatment with pancreatin-EDTA for passage was carried out twice a week. When the cell saturation was 80% to 90%, and the number reached the requirement, the cells were collected, counted and inoculated.
0.2 mL (1×10^7 cells) of BT474 cells (with matrigel in a volume ratio of 1:1) were subcutaneously inoculated on the right back of each mouse. The grouping and administration were started when the average tumor volume reached about 168 mm^3. (Estrogen tablets were inoculated three days before cell inoculation).
7.3 the Preparation of the Tested Samples, Tumor Measurement, Experimental Index and Statistical Analysis were the Same as in Experimental Example 6.

Data set [2] has as its system human gastric cancer NCI-N87 cell subcutaneous xenograft tumor. Nature of the data set: In vivo efficacy, NCI-N87 subcutaneous xenograft tumor model. Set-up: species or system BALB/c nude mice. The note with it: 100 mg/kg. The method, then:
Experiment object: to study the efficacy of the tested compound on human gastric cancer NCI-N87 cell subcutaneous xenograft tumor in the BALB/c nude mouse model.
Experimental animals: female BALB/c nude mice, 6 to 8 weeks old, weight: 18 to 22 grams; Supplier: Shanghai Xipuer-Bikai Laboratory Animal Co., Ltd.
Human gastric cancer NCI-N87 cells were cultured in a monolayer in vitro, and the culture conditions were: RPMI-1640 medium with 10% fetal bovine serum, 100 U/mL penicillin, 100 μg/mL streptomycin and 2 mM glutamine, and 37° C., 5% CO2. Conventional digestion treatment with pancreatin-EDTA for passage was carried out twice a week. When the cell saturation was 80% to 90%, the cells were collected, counted and inoculated.
0.2 mL of (10×10^6) NCI-N87 cells were subcutaneously inoculated into the right back of each nude mouse (PBS:Matrigel=1:1). The grouping and administration were started when the average tumor volume reached 130 mm^3.
The tested compound was prepared as a 10 mg/mL solution, and the solvent was 10% NMP+10% ethylene glycol stearate+80% water.
The experimental index was to investigate whether the tumor growth was inhibited, delayed or cured. Tumor diameter was measured twice a week with a vernier caliper. the calculation formula of tumor volume: V=0.5a×b^2, wherein a and b represented the long and short diameters of the tumor, respectively.
The anti-tumor efficacy of the compound was evaluated by TGI (%) or relative tumor proliferation rate T/C (%). TGI (%) reflected the tumor growth inhibition rate.
relative tumor growth rate T/C (%): calculation formula was as follows: T/C %=TRTV/CRTV (TRTV: RTV of the treatment group; CRTV: RTV of the solvent control group). The relative tumor volume (RTV) was calculated according to the results of the tumor measurement. The calculation equation was RTV=Vt/V0, where V0 was the average tumor volume measured at beginning of the grouping and administration (i.e., d0), and Vt was the average tumor volume at the time of a certain measurement. TRTV and CRTV were obtained from the data on the same day.
Statistical analysis included mean value and standard error (SEM) of the tumor volume of each group at each time point. […] The comparison between two groups was analyzed by T-test, and the comparison between three or more groups was analyzed by one-way ANOVA.

A further data set addresses HER1 (ErbB1) (Homo sapiens (Human), UniProt P00533). Description: In vitro enzyme activity, HER1 (ErbB1), [γ-33P]ATP filter assay. It is filed as biochemical. As for the experimental part:
The object of this test is to detect the in vitro inhibitory activity of the compound against HER1 (ErbB1), HER2 (ErbB2) and HER4 (ErbB4). The enzymes used in this test were human ErbB1, ErbB2 and ErbB4.
Experimental Steps and Methods (96-Well Plate):
5-fold diluted tested compound buffer (5 μL), peptide substrate poly(Glu, Tyr) (4:1) (2.5 μL), ErbB (4-20 ng, 2.5 μL), MnCl2 (50 mM, 1.25 μL), dH2O (3.75 μL) and [γ-^33P]ATP (10 μL) were added, and incubated at 30° C. for 10 min. 3% phosphoric acid was added to terminate the reaction, and 10 μL of the specimen was transferred to Filtermate A. The filter was washed with 75 mM phosphoric acid for three times and methanol once, and transferred to a sealed plastic bag, and a scintillation fluid mixture (4 mL) was added, The intensity of the emitted photons was detected on the scintillation luminescence counter. The photon intensity of the enzyme sample was compared with the photon intensity of the internal control sample, and the level of photon intensity reflected the strength of the tyrosine kinase activity.

pIC50: −log10 of the molar value. “And” between values parts separate entries of the source, which are not always exact repeats. Equal entries are not always repeated. Bounds are passed on as bounds.

HER1 (ErbB1), sequence (P00533 25-1210): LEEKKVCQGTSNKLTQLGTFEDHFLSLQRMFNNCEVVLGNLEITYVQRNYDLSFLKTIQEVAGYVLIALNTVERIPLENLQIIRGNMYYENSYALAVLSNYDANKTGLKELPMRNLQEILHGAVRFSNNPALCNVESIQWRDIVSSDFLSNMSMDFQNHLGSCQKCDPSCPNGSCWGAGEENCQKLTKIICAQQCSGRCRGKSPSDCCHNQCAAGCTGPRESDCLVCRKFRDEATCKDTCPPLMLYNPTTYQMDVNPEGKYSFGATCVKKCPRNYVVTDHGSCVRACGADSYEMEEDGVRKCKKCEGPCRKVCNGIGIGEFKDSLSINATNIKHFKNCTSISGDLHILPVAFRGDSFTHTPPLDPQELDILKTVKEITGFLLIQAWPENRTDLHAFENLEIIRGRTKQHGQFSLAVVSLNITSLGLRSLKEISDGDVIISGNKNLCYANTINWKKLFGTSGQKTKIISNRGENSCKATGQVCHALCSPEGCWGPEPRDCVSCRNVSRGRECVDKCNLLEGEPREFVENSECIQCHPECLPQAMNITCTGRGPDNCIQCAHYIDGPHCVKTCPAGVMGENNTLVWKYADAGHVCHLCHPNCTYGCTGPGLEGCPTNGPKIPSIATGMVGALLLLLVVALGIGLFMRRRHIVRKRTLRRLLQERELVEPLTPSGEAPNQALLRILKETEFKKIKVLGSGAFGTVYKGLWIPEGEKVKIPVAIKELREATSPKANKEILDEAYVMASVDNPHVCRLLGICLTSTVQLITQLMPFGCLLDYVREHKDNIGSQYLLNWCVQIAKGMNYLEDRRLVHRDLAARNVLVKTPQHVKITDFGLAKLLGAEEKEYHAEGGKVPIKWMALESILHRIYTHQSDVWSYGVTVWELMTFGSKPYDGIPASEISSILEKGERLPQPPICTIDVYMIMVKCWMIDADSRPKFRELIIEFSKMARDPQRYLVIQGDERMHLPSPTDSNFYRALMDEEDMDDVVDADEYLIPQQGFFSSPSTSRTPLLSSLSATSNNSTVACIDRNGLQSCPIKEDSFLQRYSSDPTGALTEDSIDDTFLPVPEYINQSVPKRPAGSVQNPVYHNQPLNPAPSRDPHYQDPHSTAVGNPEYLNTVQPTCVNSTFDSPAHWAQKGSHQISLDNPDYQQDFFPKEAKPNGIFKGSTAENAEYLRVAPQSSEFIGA
CYP1A2, sequence (P05177 whole entry): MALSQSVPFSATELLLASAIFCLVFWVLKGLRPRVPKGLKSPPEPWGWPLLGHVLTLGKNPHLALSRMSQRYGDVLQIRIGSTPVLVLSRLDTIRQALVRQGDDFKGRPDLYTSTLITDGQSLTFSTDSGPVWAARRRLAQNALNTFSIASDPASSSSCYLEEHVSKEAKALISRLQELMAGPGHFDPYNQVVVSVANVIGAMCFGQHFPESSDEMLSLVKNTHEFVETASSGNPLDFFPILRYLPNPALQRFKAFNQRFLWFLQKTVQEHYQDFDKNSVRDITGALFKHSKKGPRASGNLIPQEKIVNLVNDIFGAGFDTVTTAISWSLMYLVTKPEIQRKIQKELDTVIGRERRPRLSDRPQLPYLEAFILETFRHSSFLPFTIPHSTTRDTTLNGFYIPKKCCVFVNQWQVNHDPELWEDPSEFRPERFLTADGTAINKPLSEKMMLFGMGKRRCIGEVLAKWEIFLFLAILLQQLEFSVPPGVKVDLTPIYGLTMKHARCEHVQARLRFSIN
CYP2D6, sequence (P10635 whole entry): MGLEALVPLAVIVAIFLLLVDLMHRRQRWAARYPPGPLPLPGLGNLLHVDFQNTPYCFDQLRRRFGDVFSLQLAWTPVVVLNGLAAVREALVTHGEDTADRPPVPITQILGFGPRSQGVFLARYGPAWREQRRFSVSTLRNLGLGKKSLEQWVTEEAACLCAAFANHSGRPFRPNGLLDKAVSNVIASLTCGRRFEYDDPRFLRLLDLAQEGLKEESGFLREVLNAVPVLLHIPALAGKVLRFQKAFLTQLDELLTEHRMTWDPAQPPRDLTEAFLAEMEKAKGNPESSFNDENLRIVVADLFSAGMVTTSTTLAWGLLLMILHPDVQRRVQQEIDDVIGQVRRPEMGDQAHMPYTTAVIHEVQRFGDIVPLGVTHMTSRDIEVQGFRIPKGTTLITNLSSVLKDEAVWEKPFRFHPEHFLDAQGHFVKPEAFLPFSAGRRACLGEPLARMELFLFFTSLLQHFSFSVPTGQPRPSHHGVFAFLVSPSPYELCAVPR

For the molecule `Cc1cc(Nc2ncnn3ccc(CN4CCC(N)CC4)c23)ccc1Oc1ccn2ncnc2c1` [Example 4], the pIC50 is 4.60 at CYP2D6, below 4.30 against CYP1A2 and 6.79 against HER1 (ErbB1). Besides, the RTV in data set [1] (day 20) is listed as 0.20 ± 0.02. The figures for the T/C in data set [1] (day 20) and in data set [2] (day 21) were 2.62% and 2.92%, respectively. In addition, the values for the TGI in data set [1] (day 20) and in data set [2] (day 21) were 112.93% and 112.13%, respectively. Moreover, the Tumor volume in data set [1] (day 20 (head: Day 21), mean ± SEM) was 33 mm^3 and 33 ± 3 mm^3. In addition, the “body weight of the mice in the treatment group” value in data set [2] is “decreased slightly”. For the same molecule, the “Tumor volume (Day 21)” value in data set [2] (day 21, mean ± SEM) is 29 mm^3 and 29 ± 7 mm^3.
